The nature of data set [1]: Body weight during fatigue procedure and test period. It counts as in vivo, Rats, Sprague-Dawley. The conditions noted are these: test period. As for the experimental part: FIG. 26 Body weight (in g; mean, SEM) before the beginning and during the fatigue procedure (F-D1-7) and during the test period (T-D1-D3+24 h).
Animals were weighed every day.
After the end of the Fatigue procedure, animals were divided into 10 groups which received before tests (total: 3 administrations) a per-os (p.o., oral gavage) administration of: • Sham (no fatigue) group (N=12): Vehicle. • Control group (N=11): Vehicle. • Modafinil 32 (N=10): modafinil (32 mg/kg). • Modafinil 64 (N=10): modafinil (64 mg/kg). • Modafinil 128 (N=5): modafinil (128 mg/kg). • NLS-4 16 (N=5): NLS-4 (16 mg/kg). • NLS-4 32 (N=10): NLS-4 (32 mg/kg). • NLS-4 64 (N=10): NLS-4 (64 mg/kg). • NLS-4 128 (N=10): NLS-4 (128 mg/kg). • NLS-4 256 (N=5): NLS-4 (256 mg/kg).

In another data set the test system is impulsivity. The data set is described as follows: Impulsivity. The data set is classed as in vivo. The conditions noted are these: three doses tested; compared with modafinil.
The target in data set [2] is T1, NPY1 (h) (reverse agonist radioligand) (Homo sapiens, UniProt P25929).
T1 construct: Eurofins CEREP (contract study 100014859)
T1 sequence (P25929 1-384): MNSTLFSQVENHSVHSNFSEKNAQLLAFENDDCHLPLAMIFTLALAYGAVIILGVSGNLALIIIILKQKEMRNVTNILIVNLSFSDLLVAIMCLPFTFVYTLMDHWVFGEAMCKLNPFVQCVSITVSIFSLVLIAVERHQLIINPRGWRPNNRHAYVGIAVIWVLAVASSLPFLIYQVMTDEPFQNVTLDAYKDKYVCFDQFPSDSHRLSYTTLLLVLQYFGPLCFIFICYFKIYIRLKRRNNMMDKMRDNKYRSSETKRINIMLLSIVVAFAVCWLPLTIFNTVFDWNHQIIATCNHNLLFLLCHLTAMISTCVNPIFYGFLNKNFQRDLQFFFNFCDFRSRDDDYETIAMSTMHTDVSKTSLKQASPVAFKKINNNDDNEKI
The data set can be described thus: Radioligand binding panel (Eurofins CEREP), NPY1. The following applies: % inhibition of control specific binding. As for the experimental part: (§1) Lauflumide is tested at 10^-5 M, calculated as a % inhibition of control specific binding of a radioactively labeled ligand specific for each target.
(§2) This binding profile panel was broadly defined with roughly an equal number of selective, central and peripheral therapeutically relevant targets, including native animal tissues, radioligands and specific enzymes involved in cell cycle regulation in accordance with Eurofins Standard Operating Procedure (www.eurofins.fr).
(§3) For radioligand binding experiments, the half maximal inhibitory concentration (IC50) and the half maximal effective concentration (EC50) values were determined (via computer software) by nonlinear regression analysis of the competition curves using Hill equation curve fitting. The inhibition constants (Ki) were calculated using the Cheng-Prusoff equation (Ki=IC50/(1+(L/KD)), where L is the concentration of radioligand in the assay, and KD is the affinity of the radioligand for the receptor.
(§4) The results are expressed as a % control specific binding ([measured specific binding/control specific binding]×100) and as a % inhibition of control specific binding (100−[(measured specific binding/control specific binding)×100]) obtained in the presence of the test compounds. […]

In data set [3] the target is T2, Histamine 2 (h) (H2) (agonist radioligand) (Homo sapiens, UniProt P25021).
T2 construct: Eurofins CEREP (contract study 100014859)
T2 sequence (P25021 whole entry): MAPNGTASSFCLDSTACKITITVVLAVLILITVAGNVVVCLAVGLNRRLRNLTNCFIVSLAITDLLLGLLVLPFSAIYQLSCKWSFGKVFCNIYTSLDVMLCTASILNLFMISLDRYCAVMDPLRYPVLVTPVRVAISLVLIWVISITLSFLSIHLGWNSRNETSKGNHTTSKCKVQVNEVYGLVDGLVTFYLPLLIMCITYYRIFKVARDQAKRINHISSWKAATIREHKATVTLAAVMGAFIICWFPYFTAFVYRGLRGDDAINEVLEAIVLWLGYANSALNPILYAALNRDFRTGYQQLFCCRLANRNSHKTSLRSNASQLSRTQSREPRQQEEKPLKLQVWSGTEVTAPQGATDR
The data set is described as follows: Radioligand binding panel (Eurofins CEREP), histamine H2. The conditions noted are these: % inhibition of control specific binding. As for the experimental part:
as §1, §2, §3, §4

In data set [4] the target is T3, DAT (h) (antagonist radioligand) (Homo sapiens, UniProt Q01959).
T3 construct: Eurofins CEREP (contract study 100014859)
T3 sequence (Q01959 whole entry): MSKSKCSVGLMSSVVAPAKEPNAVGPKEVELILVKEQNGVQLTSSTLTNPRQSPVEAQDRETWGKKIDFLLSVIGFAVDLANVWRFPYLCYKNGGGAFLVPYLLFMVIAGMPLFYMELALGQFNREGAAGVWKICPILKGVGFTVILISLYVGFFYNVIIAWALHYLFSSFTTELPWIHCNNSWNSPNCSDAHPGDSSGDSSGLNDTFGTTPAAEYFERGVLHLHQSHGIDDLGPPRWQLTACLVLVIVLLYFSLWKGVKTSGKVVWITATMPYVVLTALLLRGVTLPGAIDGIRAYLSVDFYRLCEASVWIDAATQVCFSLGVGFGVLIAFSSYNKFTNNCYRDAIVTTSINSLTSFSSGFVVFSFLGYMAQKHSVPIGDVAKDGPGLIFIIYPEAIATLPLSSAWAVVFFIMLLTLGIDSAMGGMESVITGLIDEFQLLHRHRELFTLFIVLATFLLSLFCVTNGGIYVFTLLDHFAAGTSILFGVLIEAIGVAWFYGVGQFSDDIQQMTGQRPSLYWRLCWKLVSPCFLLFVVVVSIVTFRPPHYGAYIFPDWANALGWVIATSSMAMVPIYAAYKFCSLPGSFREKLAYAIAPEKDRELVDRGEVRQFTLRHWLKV
The data set is described as follows: Radioligand binding panel (Eurofins CEREP), DAT. The conditions noted are these: % inhibition of control specific binding. As for the experimental part:
as §1, §2, §3, §4

Usually % Inhibition stands for the drop in the measured response relative to a control, in per cent. Read a low % Inhibition as a weak effect.

`NC(=O)C[S@@+]([O-])C(c1ccc(F)cc1)c1ccc(F)cc1` [Lauflumide, 2-[(R)-((bis(4-fluorophenyl)methane)sulfinyl)]acetamide]: the figures for the “Weight loss induced by the fatigue procedure” value in data set [1] (16 mg/kg p.o.) and in data set [1] (32-256 mg/kg p.o.) were “not modified” and “aggravated”, respectively. Moreover, the Impulsivity result in the data set on impulsivity was “improved impulsivity at the three doses tested with a better significant response than modafinil”. Also, the figures for the “% Inhibition at 10^−5M” value in data set [2], in data set [3] and in data set [4] were 27.3%, 46.6% and 84.4%, respectively.

The record behind these values is US20250049737A1, “Lauflumide and derivatives thereof for treating chronic fatigue syndrome and myalgic encephalomyelitis/chronic fatigue syndrome (ME/CFS)” (NLS Pharmaceutics AG, priority 2021, published 2025).
